In this experiment the target is T1, ASIC1a (Homo sapiens, UniProt P78348).
T1 sequence (P78348 1-528): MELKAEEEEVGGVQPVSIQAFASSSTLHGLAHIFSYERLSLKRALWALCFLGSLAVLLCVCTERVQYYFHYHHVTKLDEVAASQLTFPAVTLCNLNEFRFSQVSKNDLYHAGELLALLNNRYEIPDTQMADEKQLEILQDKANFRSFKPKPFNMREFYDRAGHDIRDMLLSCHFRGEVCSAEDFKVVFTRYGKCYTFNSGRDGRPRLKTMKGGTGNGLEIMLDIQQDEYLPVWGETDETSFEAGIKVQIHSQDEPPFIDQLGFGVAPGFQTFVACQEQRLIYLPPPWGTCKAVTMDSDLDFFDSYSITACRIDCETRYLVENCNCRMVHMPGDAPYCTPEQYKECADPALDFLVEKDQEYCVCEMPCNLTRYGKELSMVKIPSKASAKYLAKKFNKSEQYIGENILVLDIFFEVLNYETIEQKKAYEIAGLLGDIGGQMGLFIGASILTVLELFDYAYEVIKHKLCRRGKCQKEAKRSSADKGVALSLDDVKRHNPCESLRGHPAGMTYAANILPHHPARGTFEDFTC
Put plainly: Whole cell patch clamp in HEK293 cells transfected with hASIC1a. More on the design: expressed in transfected cells; host or cells: Xenopus laevis oocytes, nuclear microinjection of an expression vector such as pCDNA3. Type of experiment: cell-based. The text has this:
Screening and Bioanalysis of ASIC Antagonists in Heterologous Expression Systems
This example describes another in vitro assessment of the activity of the compounds of the present invention.
Another example of an in vitro assessment method consists of using mammalian heterologous expression systems, which are known to the skilled in the art, and include a variety of mammalian cell lines such as COS, HEK, e.g., HEK293 and/or CHO, cells. Cell lines are transfected with gated ion channel(s) and used to perform electrophysiology as follows:
All experiments are performed at room temperature (20-25° C.) in voltage clamp using conventional whole cell patch clamp methods (Neher, E., et al. (1978) Pfluegers Arch 375:219-228). […]
Coverslips with the cells are transferred to a 15 μl experimental chamber mounted on the stage of an inverted microscope (IMT-2, Olympus) supplied with Nomarski optics. […] The cells are held at a holding voltage of −60 mV and at the start of each experiment the current is continuously measured for 45 s to ensure a stable baseline. […] Current amplitudes are measured at the peak of the responses, and effect of the compounds is calculated as the amplitude at compound equilibrium divided by the amplitude of the current evoked by the pulse just before the compound is included. […]

Like-named read-outs stand apart in the source and are kept apart here.

As a reminder, the IC50 is the concentration needed to halve the response being measured. As to `CCN1CCc2c(-c3ccccc3)cc(C#N)c(N)c2C1` [Compound 12, 8-Amino-2-ethyl-5-phenyl-1,2,3,4-tetrahydro-isoquinoline-7-carbonitrile], the IC50 (HEK293 cells, whole cell patch clamp, six point dose-response, read-out: IC50, inhibition of acid-induced hASIC1a activity) worked out at 4 µM.

`CCN1CCc2c(-c3cc(Cl)ccc3OC)cc(C#N)c(N)c2C1` [Compound 44] had an IC50 of 5.1 µM.

The values are drawn from patent US20080004282A1, “Compositions and methods for modulating gated ion channels” (PainCeptor Pharma Corporation, priority 2006, published 2008).
